According to patent US8178552B2, “7-Azaindole derivatives and their use in the inhibition of c-Jun N-terminal kinase” (Eisai R&D Management Co., Ltd., priority 2008, dated 2012):

Biological target: JNK3 (Homo sapiens, UniProt P53779)
Assay: JNK3 SPA assay
Format: biochemical
Settings: 3.33 μM ATP, GST-c-Jun substrate; read-out: IC50 against JNK3
Description: JNK1, JNK2, JNK3—SPA Assay
JNK1, JNK2, JNK3—SPA Assay • 1. Compound is dissolved in DMSO to a convenient concentration and this is diluted in 10% DMSO to a five times concentrate of the desired starting concentration (frequently 1:100). • 2. 10 μl of 500 mM EDTA is added to alternative wells of the Opti-plate row, which will receive kinase reaction plus DMSO. This creates the negative control. • 3. For the JNK2 and JNK3 assay, compounds are prepared in six 2-fold dilutions with water and each concentration is tested in duplicate. For the JNK1 assay compounds are prepared in four 5-fold dilutions with water which are tested in triplicate. Controls are treated identically. • 4. 20 μl per well of each compound concentration is transferred to an Opti-plate, in duplicate. • 5. 30 μl (JNK2/3 SPA) or 50 μl (JNK1 SPA) of substrate solution (25 mM HEPES pH 7.5, 10 mM magnesium acetate with 3.33 μM ATP (JNK2/3) or 2 μM ATP (JNK1), approximately 7.5 kBq [γ-^33P] ATP, GST-c-Jun, in water) is added to each well. • 6. 50 μl (JNK2/3 SPA) or 30 μl (JNK1 SPA) of kinase solution (JNK in 25 mM HEPES pH 7.5, 10 mM Mg Acetate) is added to each well.
• 7. The plate is incubated for 30 minutes at room temperature. • 8. 100 μl of bead/stop solution is added to each well (5 mg/ml glutathione-PVT-SPA beads, 40 mM ATP in PBS). • 9. Plates are sealed and incubated for 30 minutes at room temperature, centrifuged for 10 minutes at 2500 g and counted. • 10. The IC50 values are calculated as the concentration of the compound being tested at which the phosphorylation of c-Jun is decreased to 50% of the control value.

Chain of JNK3 (P53779 whole entry, species assumed): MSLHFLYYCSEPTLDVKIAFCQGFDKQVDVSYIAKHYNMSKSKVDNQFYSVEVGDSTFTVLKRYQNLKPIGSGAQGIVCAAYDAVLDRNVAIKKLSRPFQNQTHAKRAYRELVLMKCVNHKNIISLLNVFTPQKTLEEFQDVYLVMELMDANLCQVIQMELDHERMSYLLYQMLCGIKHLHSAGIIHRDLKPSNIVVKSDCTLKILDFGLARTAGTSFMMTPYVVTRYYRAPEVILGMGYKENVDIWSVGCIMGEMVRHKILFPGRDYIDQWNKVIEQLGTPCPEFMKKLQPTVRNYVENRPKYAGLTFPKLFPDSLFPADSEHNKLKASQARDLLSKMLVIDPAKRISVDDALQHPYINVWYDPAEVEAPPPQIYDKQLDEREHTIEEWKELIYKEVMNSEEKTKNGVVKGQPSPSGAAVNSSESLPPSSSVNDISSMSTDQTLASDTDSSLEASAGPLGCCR

Row | Compound | IC50 [µM]
1 | Cn1cc(-c2c[nH]c3ncc(C4=CCC(C(C)(C)C)CC4)cc23)cn1 (centres unmarked) [Compound I-2, 5-(4-tert-butylcyclohex-1-enyl)-3-(1-methyl-1H-pyrazol-4-yl)-1H-pyrrolo[2,3-b]pyridine] | 0.199
2 | COC1=C(c2cnc3[nH]cc(-c4cnn(C)c4)c3c2)CCCC1 [Compound I-31, 5-(2-Methoxy-cyclohex-1-enyl)-3-(1-methyl-1H-pyrazol-4-yl)-1H-pyrrolo[2,3-b]pyridine] | 0.48
3 | CN1CCCN([C@H]2CC[C@@H](c3cnc4[nH]cc(-c5cnn(C)c5)c4c3)CC2)CC1 [Compound I-38, 5-((1s,4s)-4-(4-methyl-1,4-diazepan-1-yl)cyclohexyl)-3-(1-methyl-1H-pyrazol-4-yl)-1H-pyrrolo[2,3-b]pyridine] | 0.098
4 | CCC1CCC(c2cnc3[nH]cc(-c4cnn(C)c4)c3c2)CC1 (mixture of isomers) [Compound I-22, 5-(4-ethylcyclohexyl)-3-(1-methyl-1H-pyrazol-4-yl)-1H-pyrrolo[2,3-b]pyridine] | 0.025
5 | Cn1cc(-c2c[nH]c3ncc(C4=CC5CC[C@]4(C)C5(C)C)cc23)cn1 [Compound I-138, 3-(1-methyl-1H-pyrazol-4-yl)-5-((1R)-1,7,7-trimethylbicyclo[2.2.1]hept-2-en-2-yl)-1H-pyrrolo[2,3-b]pyridine] | 0.148
6 | CN(C)C1CCC(c2cnc3[nH]cc(-c4cnn(C)c4)c3c2)CC1 (centres unmarked) [Compound I-9, N,N-dimethyl-4-(3-(1-methyl-1H-pyrazol-4-yl)-1H-pyrrolo[2,3-b]pyridin-5-yl)cyclohexanamine] | 0.04
7 | CC1CC=C(c2cnc3[nH]cc(-c4cnn(C)c4)c3c2)CC1 (centres unmarked) [Compound I-1, 3-(1-methyl-1H-pyrazol-4-yl)-5-(4-methylcyclohex-1-enyl)-1H-pyrrolo[2,3-b]pyridine] | 0.018
8 | Mixture of 3-(1-methyl-1H-pyrazol-4-yl)-5-(5-methylcyclohex-1-enyl)-1H-pyrrolo[2,3-b]pyridine and 3-(1-methyl-1H-pyrazol-4-yl)-5-(3-methylcyclohex-1-enyl)-1H-pyrrolo[2,3-b]pyridine [Compound I-29] | 0.098
9 | CCOCCN(CC)[C@H]1CC[C@H](c2cnc3[nH]cc(-c4cnn(C)c4)c3c2)CC1 [Compound I-107, (1r,4r)-N-(2-ethoxyethyl)-N-ethyl-4-(3-(1-methyl-1H-pyrazol-4-yl)-1H-pyrrolo[2,3-b]pyridin-5-yl)cyclohexanamine] | 0.288
10 | Cn1cc(-c2c[nH]c3ncc(C4CCCC5C4C5(C)C)cc23)cn1 (centres unmarked) [Compound I-142, 5-(7,7-dimethylbicyclo[4.1.0]heptan-2-yl)-3-(1-methyl-1H-pyrazol-4-yl)-1H-pyrrolo[2,3-b]pyridine] | 0.155
11 | CCN(C)[C@H]1CC[C@@H](c2cnc3[nH]cc(-c4cnn(C)c4)c3c2)CC1 [Compound I-110, (1s,4s)-N-ethyl-N-methyl-4-(3-(1-methyl-1H-pyrazol-4-yl)-1H-pyrrolo[2,3-b]pyridin-5-yl)cyclohexanamine] | 0.355
12 | c1nn(CCN2CCOCC2)cc1-c1c[nH]c2ncc([C@H]3CC[C@@H](N4CCOCC4)CC3)cc12 [Compound I-58, 4-(2-(4-(5-((1s,4s)-4-morpholinocyclohexyl)-1H-pyrrolo[2,3-b]pyridin-3-yl)-1H-pyrazol-1-yl)ethyl)morpholine] | > 0.5
13 | CC1CCCC(c2cnc3[nH]cc(-c4cnn(C)c4)c3c2)C1 (mixture of isomers) [Compound I-32, 3-(1-methyl-1H-pyrazol-4-yl)-5-(3-methylcyclohexyl)-1H-pyrrolo[2,3-b]pyridine] | 0.079
14 | Cn1cc(-c2c[nH]c3ncc([C@H]4CC[C@H](N5CCCCC5)CC4)cc23)cn1 [Compound I-45, 3-(1-methyl-1H-pyrazol-4-yl)-5-((1r,4r)-4-(piperidin-1-yl)cyclohexyl)-1H-pyrrolo[2,3-b]pyridine] | 0.166
15 | Cn1cc(-c2c[nH]c3ncc(C4CC(C)(C)CC(C)(C)C4)cc23)cn1 [Compound I-34, 3-(1-methyl-1H-pyrazol-4-yl)-5-(3,3,5,5-tetramethylcyclohexyl)-1H-pyrrolo[2,3-b]pyridine] | 2.14
16 | CCC1CC=C(c2cnc3[nH]cc(-c4cnn(C)c4)c3c2)CC1 (centres unmarked) [Compound I-8, 5-(4-ethylcyclohex-1-enyl)-3-(1-methyl-1H-pyrazol-4-yl)-1H-pyrrolo[2,3-b]pyridine] | 0.016

Row | Compound | IC50 [µM]
17 | c1n[nH]cc1-c1c[nH]c2ncc([C@H]3CC[C@@H](N4CCOCC4)CC3)cc12 [Compound I-78, 4-((1s,4s)-4-(3-(1H-pyrazol-4-yl)-1H-pyrrolo[2,3-b]pyridin-5-yl)cyclohexyl)morpholine] | 0.288
18 | Cn1cc(-c2c[nH]c3ncc(C4=CC5CC(=O)CC(C4)C5)cc23)cn1 (centres unmarked) [Compound I-145, 7-(3-(1-methyl-1H-pyrazol-4-yl)-1H-pyrrolo[2,3-b]pyridin-5-yl)bicyclo[3.3.1]non-6-en-3-one] | 0.167
19 | CCCN(CC)[C@H]1CC[C@@H](c2cnc3[nH]cc(-c4cnn(C)c4)c3c2)CC1 [Compound I-114, (1s,4s)-N-ethyl-4-(3-(1-methyl-1H-pyrazol-4-yl)-1H-pyrrolo[2,3-b]pyridin-5-yl)-N-propylcyclohexanamine] | 0.224
20 | c1n[nH]cc1-c1c[nH]c2ncc([C@H]3CC[C@H](N4CCOCC4)CC3)cc12 [Compound I-79, 4-((1r,4r)-4-(3-(1H-pyrazol-4-yl)-1H-pyrrolo[2,3-b]pyridin-5-yl)cyclohexyl)morpholine] | 0.117
21 | CC1CC(c2cnc3[nH]cc(-c4cnn(C)c4)c3c2)CC(C)(C)C1 (mixture of isomers) [Compound I-36, 3-(1-methyl-1H-pyrazol-4-yl)-5-(3,3,5-trimethylcyclohexyl)-1H-pyrrolo[2,3-b]pyridine] | 0.257
22 | Cn1cc(-c2c[nH]c3ncc(C4CCC(CN5CCOCC5)CC4)cc23)cn1 (mixture of isomers) [Compound I-73, 3-(1-Methyl-1H-pyrazol-4-yl)-5-(4-morpholin-4-ylmethyl-cyclohexyl)-1H-pyrrolo[2,3-b]pyridine] | 0.074
23 | CN1CCN(C2CC3C=C(c4cnc5[nH]cc(-c6cnn(C)c6)c5c4)CC(C3)C2)CC1 (stereo not drawn) [Compound I-149, trans-3-(1-methyl-1H-pyrazol-4-yl)-5-(7-(4-methylpiperazin-1-yl)bicyclo[3.3.1]non-2-en-3-yl)-1H-pyrrolo[2,3-b]pyridine] | > 0.5
24 | CCCN(CC)[C@H]1CC[C@H](c2cnc3[nH]cc(-c4cnn(C)c4)c3c2)CC1 [Compound I-113, (1r,4r)-N-ethyl-4-(3-(1-methyl-1H-pyrazol-4-yl)-1H-pyrrolo[2,3-b]pyridin-5-yl)-N-propylcyclohexanamine] | 0.316
25 | Cn1cc(-c2c[nH]c3ncc(C4=CCCCCC4)cc23)cn1 [Compound I-13, (E)-5-cycloheptenyl-3-(1-methyl-1H-pyrazol-4-yl)-1H-pyrrolo[2,3-b]pyridine] | 0.126
26 | Cn1cc(-c2c[nH]c3ncc(C4=CC5CC(O)CC(C4)C5)cc23)cn1 (centres unmarked) [Compound I-146, 7-(3-(1-methyl-1H-pyrazol-4-yl)-1H-pyrrolo[2,3-b]pyridin-5-yl)bicyclo[3.3.1]non-6-en-3-ol] | 0.832
27 | CN1CCN([C@H]2CC[C@H](c3cnc4[nH]cc(-c5cnn(C(F)(F)F)c5)c4c3)CC2)CC1 [Compound I-66, 5-((1r,4r)-4-(4-methylpiperazin-1-yl)cyclohexyl)-3-(1-(trifluoromethyl)-1H-pyrazol-4-yl)-1H-pyrrolo[2,3-b]pyridine] | 0.219
28 | CCN(CCOC)[C@H]1CC[C@@H](c2cnc3[nH]cc(-c4cnn(C)c4)c3c2)CC1 [Compound I-124, (1s,4s)-N-ethyl-N-(2-methoxyethyl)-4-(3-(1-methyl-1H-pyrazol-4-yl)-1H-pyrrolo[2,3-b]pyridin-5-yl)cyclohexanamine] | 0.257
29 | Cn1cc(-c2c[nH]c3ncc(C4=CCC(C)(C)CC4)cc23)cn1 [Compound I-15, 5-(4,4-dimethylcyclohex-1-enyl)-3-(1-methyl-1H-pyrazol-4-yl)-1H-pyrrolo[2,3-b]pyridine] | 0.275
30 | Cn1cc(-c2c[nH]c3ncc([C@H]4CC[C@H](N5CC[C@H](F)C5)CC4)cc23)cn1 [Compound I-50, 5-((1S,4r)-4-((S)-3-fluoropyrrolidin-1-yl)cyclohexyl)-3-(1-methyl-1H-pyrazol-4-yl)-1H-pyrrolo[2,3-b]pyridine] | 0.214
31 | Cn1cc(-c2c[nH]c3ncc([C@H]4CC[C@H](N5CC[C@@H](F)C5)CC4)cc23)cn1 [Compound I-54, 5-((1R,4r)-4-((R)-3-fluoropyrrolidin-1-yl)cyclohexyl)-3-(1-methyl-1H-pyrazol-4-yl)-1H-pyrrolo[2,3-b]pyridine] | 0.174
32 | CCCN(C)[C@H]1CC[C@H](c2cnc3[nH]cc(-c4cnn(C)c4)c3c2)CC1 [Compound I-115, (1r,4r)-N-methyl-4-(3-(1-methyl-1H-pyrazol-4-yl)-1H-pyrrolo[2,3-b]pyridin-5-yl)-N-propylcyclohexanamine] | 0.347
